Data on six compounds can be found in ChEMBL document CHEMBL1149553, “Bicyclo[2.2.2]octanes: close structural mimics of the nuclear receptor-binding motif of steroid receptor coactivators” (Bioorg Med Chem Lett, 2007).

By Ki is commonly meant the equilibrium dissociation constant of an inhibitor or competing ligand from its target.

The target of this test is T1, Estrogen receptor (Homo sapiens, UniProt P03372).
T1 sequence (P03372 whole entry): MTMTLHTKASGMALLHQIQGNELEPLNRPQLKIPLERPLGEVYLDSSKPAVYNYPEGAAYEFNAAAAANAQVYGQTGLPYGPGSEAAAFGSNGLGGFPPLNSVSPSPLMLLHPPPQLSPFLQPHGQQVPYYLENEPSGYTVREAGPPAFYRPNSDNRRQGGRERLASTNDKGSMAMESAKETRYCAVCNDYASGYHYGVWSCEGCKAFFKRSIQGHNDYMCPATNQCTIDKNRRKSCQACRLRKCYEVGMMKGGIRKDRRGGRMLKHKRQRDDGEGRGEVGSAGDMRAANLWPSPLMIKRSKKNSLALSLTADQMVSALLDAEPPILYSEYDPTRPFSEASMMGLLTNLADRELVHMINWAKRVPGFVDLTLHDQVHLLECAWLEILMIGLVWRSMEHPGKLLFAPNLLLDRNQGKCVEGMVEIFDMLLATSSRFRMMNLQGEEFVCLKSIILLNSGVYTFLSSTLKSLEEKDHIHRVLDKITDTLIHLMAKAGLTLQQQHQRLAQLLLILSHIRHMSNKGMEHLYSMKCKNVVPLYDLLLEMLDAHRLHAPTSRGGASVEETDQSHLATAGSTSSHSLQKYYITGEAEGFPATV
In words: Displacement of iodoacetamide-fluorescein-labeled SRC3 from ERalpha by TR-FRET assay. For orientation: Time-resolved FRET reads energy transfer from a long-lived donor to a nearby acceptor.
`COC(=O)C(N)CC1(C)CC2CCC1CC2C(C)(C)CCNC(=O)CCC(C)C` (stereo unspecified) showed a Ki of 32 µM.

In the case of `COC(=O)C(CC1(C)CC2CCC1CC2C(C)(C)CCNC(=O)CCC(C)C)NC(=O)OCc1ccccc1` (stereo unspecified), the Ki turned out to be 38 µM. The same measure for `CC[C@H](C)[C@H](NC(=O)[C@H](CCCCN)NC(=O)[C@H](Cc1c[nH]cn1)NC(=O)[C@H](CCCNC(=N)N)NC(=O)[C@H](CCC(=O)O)NC(=O)[C@@H](NC(=O)[C@@H](N)CC(C)C)[C@@H](C)O)C(=O)N[C@@H](CC(C)C)C(=O)N[C@@H](Cc1c[nH]cn1)C(=O)N[C@@H](CCCNC(=N)N)C(=O)N[C@@H](CC(C)C)C(=O)N[C@@H](CC(C)C)C(=O)N[C@@H](CCC(N)=O)C(=O)N[C@@H](CCC(=O)O)C(=O)NCC(=O)N[C@@H](CO)C(=O)N1CCC[C@H]1C(=O)N[C@@H](CO)C(=O)N[C@@H](CC(=O)O)C(=O)O`: 0.19 µM; for `COC(=O)C(=CC1(C)CC2C=CC1CC2C(C)(C)CCNC(=O)CCC(C)C)C(=O)OC` (stereo unspecified): 7.9 µM. As to `COC(=O)C(CC1(C)CC2CCC1CC2C(C)(C)CCNC(=O)CCC(C)C)C(=O)OC` (stereo unspecified), the Ki was 7.1 µM. The Ki values of the last two compounds are within 1.5-fold of each other.

Compound `COC(=O)C(CC1(C)CC2CCC1CC2C(C)(C)CCNC(=O)CCC(C)C)C(=O)O` (stereo unspecified) yielded a Ki of 12 µM. This Ki lies about 1.7-fold higher than the previous one.
